# Assay results: the supplement of paper PMC4862054
# Experiments:
# DU-4475 = test: normalised viability (% of control), CellTiter-Blue; higher = more viable cells (about 100 = DMSO control); conditions: incubation time: 72 h
# Procedure, shortened: (§1)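 Breast cancer cell lines were treated for 72 h in 384-well format and measured by CellTiter-Blue fluorescence at 560/590 nm. Results were normalised per plate to vehicle (100) and a positive kill control (0). The entry is normalised viability at a single listed concentration of the series.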
# CAL-51 = test: as above; conditions: incubation time: 72 h
# Procedure, shortened: as §1
# CAL-120 [1] = test: as above; conditions: incubation time: 72 h
# Procedure, shortened: as §1
# HCC1143 = test: as above; conditions: incubation time: 72 h
# Procedure, shortened: as §1
# HCC1937 [2] = test: as above; conditions: incubation time: 72 h
# Procedure, shortened: as §1
# BT-549 [3] = test: as above; conditions: incubation time: 72 h
# Procedure, shortened: as §1
# SK-BR-3 [4] = test: as above; conditions: incubation time: 72 h
# Procedure, shortened: as §1
# CAL-148 = test: as above; conditions: incubation time: 72 h
# Procedure, shortened: as §1
# MDA-MB-231 = test: as above; conditions: incubation time: 72 h
# Procedure, shortened: as §1
# HCC1599 = test: as above; conditions: incubation time: 72 h
# Procedure, shortened: as §1
# Hs578T = test: as above; conditions: incubation time: 72 h
# Procedure, shortened: as §1
# MDA-MB-468 = test: as above; conditions: incubation time: 72 h
# Procedure, shortened: as §1
# MFM-223 = test: as above; conditions: incubation time: 72 h
# Procedure, shortened: as §1
# HDQ-P1 = test: as above; conditions: incubation time: 72 h
# Procedure, shortened: as §1
# CAL-85-1 = test: as above; conditions: incubation time: 72 h
# Procedure, shortened: as §1
# MDA-MB-436 [5] = test: as above; conditions: incubation time: 72 h
# Procedure, shortened: as §1
# MDA-MB-453 = test: as above; conditions: incubation time: 72 h
# Procedure, shortened: as §1
# BT-474 = test: as above; conditions: incubation time: 72 h
# Procedure, shortened: as §1
# CAL-120 [6] = conditions: 72 h
# Procedure, shortened: (§2)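 Each 384-well plate was pre-loaded with compound dissolved in 5 µl medium, received breast cancer cells in 20 µl suspension, and was incubated 72 h. A 2.5 µl addition of CellTiter-Blue for 2 h at 37 °C was followed by a fluorescence read at 560/590 nm. Data were normalised per plate to vehicle and a positive kill control and checked by Z'-factor. EC50 was fitted from the percent-inhibition dose-response curve, censored at the highest concentration, excluding rows with a drug sensitivity score of zero.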
# HCC1937 [7] = conditions: 72 h
# Procedure, shortened: as §2
# BT-549 [8] = conditions: 72 h
# Procedure, shortened: as §2
# SK-BR-3 [9] = conditions: 72 h
# Procedure, shortened: as §2
# MDA-MB-436 [10] = conditions: 72 h
# Procedure, shortened: as §2
smiles,measurement,setting,value
C=CCNC1=C2C[C@@H](C)C[C@H](OC)[C@H](O)[C@@H](C)/C=C(\C)[C@H](OC(N)=O)[C@@H](OC)/C=C\C=C(/C)C(=O)NC(=CC1=O)C2=O [Tanespimycin],normalised viability,DU-4475; 3 nM,104%
same,normalised viability,DU-4475; 30 nM,83.3%
same,normalised viability,DU-4475; 100 nM,2.97%
same,normalised viability,CAL-51; 3 nM,118%
same,normalised viability,CAL-51; 30 nM,108%
same,normalised viability,CAL-51; 100 nM,81.9%
same,normalised viability,CAL-120 [1]; 10 nM,74.2%
same,normalised viability,CAL-120 [1]; 1000 nM,24.2%
same,normalised viability,CAL-120 [1]; 10000 nM,16.4%
same,normalised viability,HCC1143; 10 nM,64.6%
same,normalised viability,HCC1143; 1000 nM,30.2%
same,normalised viability,HCC1143; 10000 nM,29.3%
same,normalised viability,HCC1937 [2]; 10 nM,140%
same,normalised viability,HCC1937 [2]; 1000 nM,25.8%
same,normalised viability,HCC1937 [2]; 10000 nM,27.1%
same,normalised viability,BT-549 [3]; 10 nM,81.5%
same,normalised viability,BT-549 [3]; 1000 nM,31%
same,normalised viability,BT-549 [3]; 10000 nM,20.4%
same,normalised viability,SK-BR-3 [4]; 10 nM,73.6%
same,normalised viability,SK-BR-3 [4]; 1000 nM,17.4%
same,normalised viability,SK-BR-3 [4]; 10000 nM,13%
same,normalised viability,CAL-148; 3 nM,97.8%
same,normalised viability,CAL-148; 30 nM,89.7%
same,normalised viability,CAL-148; 100 nM,38.5%
same,normalised viability,MDA-MB-231; 10 nM,92.5%
same,normalised viability,MDA-MB-231; 1000 nM,49.4%
same,normalised viability,MDA-MB-231; 10000 nM,28.1%
same,normalised viability,HCC1599; 10 nM,123%
same,normalised viability,HCC1599; 1000 nM,42.7%
same,normalised viability,HCC1599; 10000 nM,31.3%
same,normalised viability,Hs578T; 10 nM,77.1%
same,normalised viability,Hs578T; 1000 nM,35.8%
same,normalised viability,Hs578T; 10000 nM,24.9%
same,normalised viability,MDA-MB-468; 10 nM,113%
same,normalised viability,MDA-MB-468; 1000 nM,65.5%
same,normalised viability,MDA-MB-468; 10000 nM,81.3%
same,normalised viability,MFM-223; 10 nM,73.6%
same,normalised viability,MFM-223; 1000 nM,23.9%
same,normalised viability,MFM-223; 10000 nM,17.6%
same,normalised viability,HDQ-P1; 3 nM,92.6%
same,normalised viability,HDQ-P1; 30 nM,85.9%
same,normalised viability,HDQ-P1; 100 nM,58.6%
same,normalised viability,CAL-85-1; 3 nM,91.5%
same,normalised viability,CAL-85-1; 30 nM,86.5%
same,normalised viability,CAL-85-1; 100 nM,82.4%
same,normalised viability,MDA-MB-436 [5]; 10 nM,88.8%
same,normalised viability,MDA-MB-436 [5]; 1000 nM,24.9%
same,normalised viability,MDA-MB-436 [5]; 10000 nM,17.5%
same,normalised viability,MDA-MB-453; 3 nM,121%
same,normalised viability,MDA-MB-453; 30 nM,11.4%
same,normalised viability,MDA-MB-453; 100 nM,7.8%
same,normalised viability,BT-474; 10 nM,104%
same,normalised viability,BT-474; 1000 nM,28.4%
same,normalised viability,BT-474; 10000 nM,23.9%
same,"EC50, CellTiter-Blue viability",CAL-120 [6],218 nM
same,"EC50, CellTiter-Blue viability",HCC1937 [7],100 nM
same,"EC50, CellTiter-Blue viability",BT-549 [8],20.9 nM
same,"EC50, CellTiter-Blue viability",SK-BR-3 [9],15.7 nM
same,"EC50, CellTiter-Blue viability",MDA-MB-436 [10],25.2 nM
CC[C@]1(O)C[C@@H]2CN(CCc3c([nH]c4ccccc34)[C@@](C(=O)OC)(c3cc4c(cc3OC)N(C)[C@H]3[C@@](O)(C(=O)OC)[C@H](OC(C)=O)[C@]5(CC)C=CCN6CC[C@]43[C@@H]65)C2)C1 [Vinblastine],normalised viability,DU-4475; 0.3 nM,105%
same,normalised viability,DU-4475; 3 nM,96.5%
same,normalised viability,DU-4475; 10 nM,82.9%
same,normalised viability,CAL-51; 0.3 nM,108%
same,normalised viability,CAL-51; 3 nM,106%
same,normalised viability,CAL-51; 10 nM,96.4%
same,normalised viability,CAL-120 [1]; 1 nM,35.4%
same,normalised viability,CAL-120 [1]; 100 nM,18.5%
same,normalised viability,CAL-120 [1]; 1000 nM,20.1%
same,normalised viability,HCC1143; 1 nM,77.3%
same,normalised viability,HCC1143; 100 nM,42.7%
same,normalised viability,HCC1143; 1000 nM,29.5%
same,normalised viability,HCC1937 [2]; 1 nM,46%
same,normalised viability,HCC1937 [2]; 100 nM,18.7%
same,normalised viability,HCC1937 [2]; 1000 nM,15.6%
same,normalised viability,BT-549 [3]; 1 nM,90.7%
same,normalised viability,BT-549 [3]; 100 nM,19.4%
same,normalised viability,BT-549 [3]; 1000 nM,17%
same,normalised viability,SK-BR-3 [4]; 1 nM,27.6%
same,normalised viability,SK-BR-3 [4]; 100 nM,16.5%
same,normalised viability,SK-BR-3 [4]; 1000 nM,16.4%
same,normalised viability,CAL-148; 0.3 nM,76.8%
same,normalised viability,CAL-148; 3 nM,78.8%
same,normalised viability,CAL-148; 10 nM,79%
same,normalised viability,MDA-MB-231; 1 nM,70%
same,normalised viability,MDA-MB-231; 100 nM,13.4%
same,normalised viability,MDA-MB-231; 1000 nM,12%
same,normalised viability,HCC1599; 1 nM,106%
same,normalised viability,HCC1599; 100 nM,56.9%
same,normalised viability,HCC1599; 1000 nM,45.5%
same,normalised viability,Hs578T; 1 nM,70.4%
same,normalised viability,Hs578T; 100 nM,14.8%
same,normalised viability,Hs578T; 1000 nM,13.2%
same,normalised viability,MDA-MB-468; 1 nM,83.8%
same,normalised viability,MDA-MB-468; 100 nM,36.6%
same,normalised viability,MDA-MB-468; 1000 nM,41.8%
same,normalised viability,MFM-223; 1 nM,96.7%
same,normalised viability,MFM-223; 100 nM,43.9%
same,normalised viability,MFM-223; 1000 nM,24.9%
same,normalised viability,HDQ-P1; 0.3 nM,92.6%
same,normalised viability,HDQ-P1; 3 nM,87.3%
same,normalised viability,HDQ-P1; 10 nM,47.5%
same,normalised viability,CAL-85-1; 0.3 nM,89.9%
same,normalised viability,CAL-85-1; 3 nM,94.9%
same,normalised viability,CAL-85-1; 10 nM,48.3%
same,normalised viability,MDA-MB-436 [5]; 1 nM,93%
same,normalised viability,MDA-MB-436 [5]; 100 nM,28.8%
same,normalised viability,MDA-MB-436 [5]; 1000 nM,37%
same,normalised viability,MDA-MB-453; 0.3 nM,115%
same,normalised viability,MDA-MB-453; 3 nM,99.8%
same,normalised viability,MDA-MB-453; 10 nM,36.8%
same,normalised viability,BT-474; 1 nM,51.8%
same,normalised viability,BT-474; 100 nM,54.2%
same,normalised viability,BT-474; 1000 nM,52.7%
same,"EC50, CellTiter-Blue viability",CAL-120 [6],0.3 nM
same,"EC50, CellTiter-Blue viability",HCC1937 [7],0.67 nM
same,"EC50, CellTiter-Blue viability",BT-549 [8],3.04 nM
same,"EC50, CellTiter-Blue viability",SK-BR-3 [9],0.3 nM
same,"EC50, CellTiter-Blue viability",MDA-MB-436 [10],5.02 nM
